# Results reported in patent US20260256919A1, “BIOENHANCERS” (priority 2022, published 2026).
# Like-named read-outs stand apart in the source and are kept apart here.
# Assays:
# CYP2B6 = target: T1, CYP2B6 (Homo sapiens, UniProt P20813); conditions: microsomes
# T1 sequence (P20813 1-491): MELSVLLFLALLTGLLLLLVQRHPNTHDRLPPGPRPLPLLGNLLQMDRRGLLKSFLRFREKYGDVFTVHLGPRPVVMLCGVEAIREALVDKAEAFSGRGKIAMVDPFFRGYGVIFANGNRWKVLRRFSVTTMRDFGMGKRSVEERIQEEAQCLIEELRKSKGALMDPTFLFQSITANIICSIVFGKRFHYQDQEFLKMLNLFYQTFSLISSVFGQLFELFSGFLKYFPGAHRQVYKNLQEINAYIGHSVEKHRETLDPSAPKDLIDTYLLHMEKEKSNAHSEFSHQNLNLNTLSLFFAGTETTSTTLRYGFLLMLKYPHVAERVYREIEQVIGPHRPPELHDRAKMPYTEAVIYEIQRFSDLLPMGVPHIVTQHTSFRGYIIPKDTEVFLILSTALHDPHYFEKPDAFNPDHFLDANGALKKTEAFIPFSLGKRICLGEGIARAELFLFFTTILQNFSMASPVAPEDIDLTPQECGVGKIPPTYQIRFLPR
# CYP1A2 = target: T2, CYP1A2 (Homo sapiens, UniProt P05177); conditions: microsomes; for CYP1A2 activity expressed as % Vehicle Control: human, 10 min, pH 7.4
# T2 sequence (P05177 1-516): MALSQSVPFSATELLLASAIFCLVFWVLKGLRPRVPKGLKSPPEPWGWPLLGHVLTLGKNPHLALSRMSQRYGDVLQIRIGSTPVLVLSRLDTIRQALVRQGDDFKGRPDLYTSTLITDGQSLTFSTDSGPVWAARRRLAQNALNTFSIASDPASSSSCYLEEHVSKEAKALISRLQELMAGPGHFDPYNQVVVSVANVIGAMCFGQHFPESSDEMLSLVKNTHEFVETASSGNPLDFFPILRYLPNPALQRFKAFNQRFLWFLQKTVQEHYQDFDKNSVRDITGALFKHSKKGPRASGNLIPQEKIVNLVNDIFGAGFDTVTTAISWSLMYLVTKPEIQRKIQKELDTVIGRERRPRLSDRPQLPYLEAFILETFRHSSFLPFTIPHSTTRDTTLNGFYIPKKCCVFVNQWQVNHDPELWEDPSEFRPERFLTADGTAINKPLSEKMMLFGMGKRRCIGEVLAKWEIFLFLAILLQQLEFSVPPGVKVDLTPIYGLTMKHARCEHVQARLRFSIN
# CYP3A4/5 [1] = assay: Direct CYP3A4/5 inhibition, midazolam 1′-hydroxylation in pooled human liver microsomes; conditions: pH 7.4, probe midazolam 2 μM (1′-hydroxylation)
# CYP3A4/5 [2] = assay: in vitro; conditions: human, microsomes, pH 7.4
# CYP2C8 = target: T3, CYP2C8 (Homo sapiens, UniProt P10632); conditions: microsomes; for CYP2C8 activity expressed as % Vehicle Control: human, 10 min, pH 7.4
# T3 sequence (P10632 1-490): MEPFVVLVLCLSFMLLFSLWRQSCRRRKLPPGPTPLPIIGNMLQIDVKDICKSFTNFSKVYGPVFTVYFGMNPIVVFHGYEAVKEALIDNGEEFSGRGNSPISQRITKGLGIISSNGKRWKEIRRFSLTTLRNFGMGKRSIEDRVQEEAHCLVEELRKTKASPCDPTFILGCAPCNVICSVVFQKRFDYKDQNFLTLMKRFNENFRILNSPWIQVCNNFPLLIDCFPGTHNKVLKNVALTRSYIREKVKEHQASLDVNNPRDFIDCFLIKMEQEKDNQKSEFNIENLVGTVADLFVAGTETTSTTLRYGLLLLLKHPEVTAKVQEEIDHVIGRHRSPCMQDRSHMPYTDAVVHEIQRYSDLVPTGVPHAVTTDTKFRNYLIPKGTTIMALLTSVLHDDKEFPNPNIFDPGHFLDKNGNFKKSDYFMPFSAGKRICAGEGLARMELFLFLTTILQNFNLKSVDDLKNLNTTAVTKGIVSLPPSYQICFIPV
# CYP2C9 = CYP2C9 (Homo sapiens, UniProt P11712); conditions: for CYP2C9 activity expressed as % Vehicle Control: HLM, diclofenac
# CYP3A4/5 [3] = conditions: microsomes
# CYP3A4/5 [4] = conditions: microsomes; remark: listed apart in the source
# CYP2C19 = CYP2C19 (Homo sapiens, UniProt P33261); conditions: microsomes
# CYP2D6 = CYP2D6 (Homo sapiens, UniProt P10635); conditions: microsomes
# [5] = in vivo, 5 mg
# Sequence of CYP2C9 (P11712 whole entry): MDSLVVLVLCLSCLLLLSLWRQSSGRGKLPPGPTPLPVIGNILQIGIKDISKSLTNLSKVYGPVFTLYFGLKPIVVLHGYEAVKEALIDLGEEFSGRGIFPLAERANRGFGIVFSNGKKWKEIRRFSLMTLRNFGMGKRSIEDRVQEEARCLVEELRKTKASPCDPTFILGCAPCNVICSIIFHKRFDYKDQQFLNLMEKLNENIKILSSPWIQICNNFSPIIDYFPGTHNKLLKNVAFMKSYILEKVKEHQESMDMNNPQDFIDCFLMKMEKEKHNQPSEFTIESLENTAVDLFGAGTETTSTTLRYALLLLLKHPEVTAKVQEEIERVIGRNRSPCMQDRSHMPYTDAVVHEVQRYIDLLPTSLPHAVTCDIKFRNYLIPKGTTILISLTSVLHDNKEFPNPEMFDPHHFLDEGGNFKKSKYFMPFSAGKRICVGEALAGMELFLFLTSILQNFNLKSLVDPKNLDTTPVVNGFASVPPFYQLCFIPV
# Sequence of CYP2C19 (P33261 whole entry): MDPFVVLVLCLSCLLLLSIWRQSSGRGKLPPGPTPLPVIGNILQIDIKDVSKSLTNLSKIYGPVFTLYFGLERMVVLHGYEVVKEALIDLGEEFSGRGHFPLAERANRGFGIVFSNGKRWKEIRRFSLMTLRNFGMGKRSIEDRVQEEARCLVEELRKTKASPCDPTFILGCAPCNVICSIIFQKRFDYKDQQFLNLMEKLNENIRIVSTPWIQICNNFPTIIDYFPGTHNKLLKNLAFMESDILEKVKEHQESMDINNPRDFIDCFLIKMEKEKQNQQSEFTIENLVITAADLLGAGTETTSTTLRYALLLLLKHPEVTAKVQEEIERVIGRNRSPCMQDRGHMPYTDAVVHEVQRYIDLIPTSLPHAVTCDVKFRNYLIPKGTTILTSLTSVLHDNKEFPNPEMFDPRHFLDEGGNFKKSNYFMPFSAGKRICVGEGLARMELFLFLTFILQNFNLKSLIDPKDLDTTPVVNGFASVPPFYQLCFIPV
# Sequence of CYP2D6 (P10635 whole entry): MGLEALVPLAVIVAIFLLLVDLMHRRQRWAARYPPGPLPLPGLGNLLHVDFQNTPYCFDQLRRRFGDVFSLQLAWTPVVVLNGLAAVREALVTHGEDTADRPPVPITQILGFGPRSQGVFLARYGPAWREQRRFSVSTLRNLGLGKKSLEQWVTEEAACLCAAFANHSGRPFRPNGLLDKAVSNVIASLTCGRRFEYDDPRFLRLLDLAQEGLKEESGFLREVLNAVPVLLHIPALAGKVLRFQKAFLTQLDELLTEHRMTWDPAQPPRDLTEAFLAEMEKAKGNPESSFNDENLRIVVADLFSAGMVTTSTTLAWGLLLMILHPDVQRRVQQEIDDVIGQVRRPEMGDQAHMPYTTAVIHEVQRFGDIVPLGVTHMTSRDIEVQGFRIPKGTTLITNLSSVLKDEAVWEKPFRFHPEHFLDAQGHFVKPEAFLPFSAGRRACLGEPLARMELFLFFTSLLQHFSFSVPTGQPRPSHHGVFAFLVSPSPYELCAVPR
molecule,measurement,setting,value
"N[C@@H]1C[C@H]1c1ccccc1 (racemic) [Tranylcypromine, reference compound]",IC50,CYP2B6,3400 nM
Cc1nc2c([nH]1)c(=O)n(C)c(=O)n2Cc1ccco1 [Furafylline],CYP1A2 activity expressed as % Vehicle Control,CYP1A2; 0.01 μM,103.9 % Vehicle Control
same,CYP1A2 activity expressed as % Vehicle Control,CYP1A2; 0.1 μM,110.2 % Vehicle Control
same,CYP1A2 activity expressed as % Vehicle Control,CYP1A2; 1 μM,88.5 % Vehicle Control
same,CYP1A2 activity expressed as % Vehicle Control,CYP1A2; 10 μM,41.0 % Vehicle Control
same,CYP1A2 activity expressed as % Vehicle Control,CYP1A2; 100 μM,10.1 % Vehicle Control
CCC(C)n1ncn(-c2ccc(N3CCN(c4ccc(OCC5COC(Cn6cncn6)(c6ccc(Cl)cc6Cl)O5)cc4)CC3)cc2)c1=O (stereo not drawn) [Itraconazole],IC50 at 5 min,CYP3A4/5 [1],210 nM
same,IC50,CYP3A4/5 [2],30 nM
"CC(C)(O)c1ccccc1CC[C@@H](SCC1(CC(=O)O)CC1)c1cccc(/C=C/c2ccc3ccc(Cl)cc3n2)c1 [Montelukast, reference compound]",CYP2C8 activity expressed as % Vehicle Control,CYP2C8; 0.001 μM,96.0 % Vehicle Control
same,CYP2C8 activity expressed as % Vehicle Control,CYP2C8; 0.01 μM,91.3 % Vehicle Control
same,CYP2C8 activity expressed as % Vehicle Control,CYP2C8; 0.1 μM,66.2 % Vehicle Control
same,CYP2C8 activity expressed as % Vehicle Control,CYP2C8; 1 μM,13.3 % Vehicle Control
same,CYP2C8 activity expressed as % Vehicle Control,CYP2C8; 10 μM,1.3 % Vehicle Control
"Nc1ccc(S(=O)(=O)Nc2ccnn2-c2ccccc2)cc1 [Sulfaphenazole, reference compound]",CYP2C9 activity expressed as % Vehicle Control,CYP2C9; positive control 0.0025 μM,102.1 % Vehicle Control
same,CYP2C9 activity expressed as % Vehicle Control,CYP2C9; positive control 0.025 μM,95.7 % Vehicle Control
same,CYP2C9 activity expressed as % Vehicle Control,CYP2C9; positive control 0.25 μM,47.2 % Vehicle Control
same,CYP2C9 activity expressed as % Vehicle Control,CYP2C9; positive control 2.5 μM,10.1 % Vehicle Control
same,CYP2C9 activity expressed as % Vehicle Control,CYP2C9; positive control 25 μM,1.9 % Vehicle Control
phenylcapsaicyn,IC50,CYP2C8,> 50000 nM
same,Inhibition of CYP2C8 in words,CYP2C8,no significant inhibition
same,IC50,CYP3A4/5 [3],> 50000 nM
same,Inhibition of CYP3A4/5 in words (testosterone),CYP3A4/5 [3],no significant inhibition
same,Ki,CYP1A2,340 nM
same,IC50,CYP2B6,> 50000 nM
same,Inhibition of CYP2B6 in words,CYP2B6,no significant inhibition
same,IC50,CYP3A4/5 [4],> 50000 nM
same,Inhibition of CYP3A4/5 in words (midazolam),CYP3A4/5 [4],no significant inhibition
same,IC50,CYP2C9; microsomes,> 50000 nM
same,Inhibition of CYP2C9 in words,CYP2C9; microsomes,no significant inhibition
same,IC50,CYP2C19,> 50000 nM
same,Inhibition of CYP2C19 in words,CYP2C19,no significant inhibition
same,Ki,CYP2D6,550 nM
same,Cmax,[5],~600 nM
